# Where “and” joins values, the source holds several entries; their conditions need not be identical. Identical values can stand only once. Marks after values point to notes of the source that are not given here.
# How the values were obtained:
# [1] = system: patients with MDD; assay: Changes in Sexual Function Questionnaire (CSFQ) scores, double-blind placebo-controlled clinical study; assay type: in vivo, Humans; parameters: key to CSFQ Desire/Interest score / CSFQ Arousal/Excitement score / CSFQ Orgasm/Completion score / CSFQ Total Score / CSFQ Pleasure score / CSFQ Desire/Frequency score: CSFQ items on 5-point scale; higher = more favorable sexual function
# Experimental: (§1) A double-blind, randomized, placebo-controlled, parallel-group study was performed to evaluate the efficacy, safety and tolerability of OPC-14523 in patients with MDD. The patients selected for participation in the trial had to meet DSM-IV-TR criteria for MDD (296.2x or 296.3x; diagnosis via MINI) and had had symptoms of depression for at least 2 months before the start of the double-blind treatment. Among other drugs prohibited during the study, patients were prohibited from taking drugs used to enhance sexual function, including, but not limited to, sildenafil, tadalafil and vardenafil, or taking psychopharmacologic drugs.
# There were 131 patients assigned to receive OPC-14523 at the start of the study. One hundred twenty seven (127) of these patients took at least one dose of OPC-14523. There were 137 patients assigned to receive placebo at the start of the study. One hundred thirty three (133) of these patients took at least one dose of placebo.
# Each patient was expected to participate for up to 10 weeks. The 10 weeks included: i) a 4- to 10-day screening period, during which potential participants were administered placebo in a single-blind manner; ii) an 8-week double-blind treatment period; and iii) a 4- to 10- day post-treatment visit period. Baseline evaluations, including assessment of sexual function, were conducted on Day −1. The next day, Day 1, the double-blind medication was begun. All treatment was on an outpatient basis.
# The dosages studied were 5 mg BID OPC-14523 (10 mg total daily dose of immediate release tablet of Example 1) and placebo. The drugs were taken after meals in the morning and in the evening, about 12 hours apart.
# Data on sexual function were collected using the Changes in Sexual Function Questionnaire (CSFQ). The CSFQ is a 14-item self-report measure of sexual functioning vis-â-vis experiences of pleasure, desire, arousal, and orgasm, with a 5-point response option for each item. The 14-item validated CSFQ was developed from a questionnaire comprising 35 and 36 items for female and male respondents, respectively (Clayton et al., Psychopharmacol Bull. 33(4):731-45 (1997) and Clayton et al., Psychopharmacol Bull. 33(4):747-53 (1997), each incorporated herein by reference in its entirety). The CSFQ has also been independently validated (Bobes et al., J Sex Marital Ther. 26(2): 119-31(2000)). The 14-item CSFQ includes items 8, 11, 14, 19-24 from the interview version of the CSFQ (“CSFQ-I”); Clayton et al., Psychopharmacol Bull. 33(4):731-45 (1997)). The CSFQ differs for men and women, reflecting some variation in wording of items. Males were given the male clinical version, CSFQ-M-C, and women were given the female clinical version, CSFQ-F-C. CSFQ-F-C includes items 25, 27, 28, 30 and 31 from the questions for women on the CSFG-I. CSFQ-M-C includes items 28-32 from the questions for men on the CSFQ-I, as well as item 25 from the questions for women.
# The 14-item CSFQ has subscales for sexual pleasure (1 item), desire/frequency (2 items), desire/interest (3 items), arousal (3 items), and orgasm (3 items). In addition, a 14-item total score may be calculated. Higher scores are indicative of more favorable sexual functioning. Threshold scores for total and sub-scales have been defined. A score below the threshold score indicates dysfunction.
# Results were scored and analyzed according to the CSFQ instruction manual. The p-values resulted from an analysis of covariance (ANCOVA) linear model where the dependent variable is the change from baseline and independent variables are site effect, treatment effect, and baseline. The p-value is from the Type III sums of squares t-test for the hypothesis that the treatment groups are the same versus the alternative they are different. Last observation carry-forward (LOCF) analysis was used as indicated. In the LOCF analysis, for patients who dropped out before completion of the study, the last observations were carried forward to the final time point. […]
# [2] = system: patients with MDD; assay: Efficacy on MDD, main indication of the clinical trial; assay type: in vivo, Humans; settings: main indication in the clinical trial; 5 mg BID, 8 weeks
# Experimental: as §1
# [3] = all patients (men and women), Baseline, before treatment
# [4] = all patients (men and women), Day 28, 5 mg BID, LOCF
# [5] = all patients (men and women), Day 56, 5 mg BID, LOCF
# [6] = men only, Baseline, before treatment
# [7] = men only, Day 28, 5 mg BID, LOCF
# [8] = men only, Day 56, 5 mg BID, LOCF
# [9] = women only, Baseline, before treatment
# [10] = women only, Day 28, 5 mg BID, LOCF
# [11] = women only, Day 56, 5 mg BID, LOCF
smiles,measurement,setting,value
"COc1cccc2c1CCC(=O)N2CCCN1CCN(c2cccc(Cl)c2)CC1 [OPC-14523, 1-[3-[4-(3-chlorophenyl)-1-piperazinyl]propyl]-5-methoxy-3,4-dihydro-2(1H)-quinolone]",CSFQ Arousal/Excitement score,[1]; [3],8.97
same,CSFQ Desire/Frequency score,[1]; [3],5.13
same,CSFQ Desire/Interest score,[1]; [3],7.30
same,CSFQ Orgasm/Completion score,[1]; [3],9.50
same,CSFQ Pleasure score,[1]; [3],2.06
same,CSFQ Total Score,[1]; [3],41.9
same,CSFQ Arousal/Excitement score,[1]; [4],9.24
same,CSFQ Desire/Frequency score,[1]; [4],5.39
same,CSFQ Desire/Interest score,[1]; [4],7.66
same,CSFQ Orgasm/Completion score,[1]; [4],9.56
same,CSFQ Pleasure score,[1]; [4],2.41**
same,CSFQ Total Score,[1]; [4],43.4
same,CSFQ Arousal/Excitement score,[1]; [5],9.55
same,CSFQ Desire/Frequency score,[1]; [5],5.57*
same,CSFQ Desire/Interest score,[1]; [5],7.94*
same,CSFQ Orgasm/Completion score,[1]; [5],9.77
same,CSFQ Pleasure score,[1]; [5],2.51 (p = 0.11)
same,CSFQ Total Score,[1]; [5],44.4 (p = 0.05)
same,"sexual function overall, CSFQ Total Scores (in words)","[1]; all patients, compared with placebo, Day 28 and/or Day 56",significantly improved sexual function overall
same,sexual desire (in words),[1]; both men and women,increased sexual desire
same,sexual pleasure and sexual arousal and excitement (in words),[1]; men,strong trend of improved sexual pleasure and sexual arousal and excitement
same,CSFQ Arousal/Excitement score,[1]; [6],10.5 and 10.48
same,CSFQ Desire/Frequency score,[1]; [6],5.8 and 5.77
same,CSFQ Desire/Interest score,[1]; [6],8.2 and 8.21
same,CSFQ Orgasm/Completion score,[1]; [6],11.3 and 11.33
same,CSFQ Pleasure score,[1]; [6],2.2 and 2.15
same,CSFQ Total Score,[1]; [6],47.6
same,CSFQ Arousal/Excitement score,[1]; [7],11.13 (p = 0.07)
same,CSFQ Desire/Frequency score,[1]; [7],6.26*
same,CSFQ Desire/Interest score,[1]; [7],8.94*
same,CSFQ Orgasm/Completion score,[1]; [7],11.32
same,CSFQ Pleasure score,[1]; [7],2.68***
same,CSFQ Total Score,[1]; [7],50.1*
same,CSFQ Arousal/Excitement score,[1]; [8],11.17 (p = 0.13)
same,CSFQ Desire/Frequency score,[1]; [8],6.38*
same,CSFQ Desire/Interest score,[1]; [8],8.91 (p = 0.07)
same,CSFQ Orgasm/Completion score,[1]; [8],11.34
same,CSFQ Pleasure score,[1]; [8],2.60 (p = 0.10)
same,CSFQ Total Score,[1]; [8],50.2 (p = 0.12)
same,sexual function overall (in words),"[1]; men, compared with placebo, Day 28 and/or Day 56",significantly improved sexual function overall
same,sexual interest (in words),"[1]; men, p=0.07",improved sexual interest
same,total CSFQ and every subscale vs placebo (in words),[1]; summary,advantage over placebo
same,CSFQ Arousal/Excitement score,[1]; [9],7.9 and 7.91
same,CSFQ Desire/Frequency score,[1]; [9],4.7 and 4.68
same,CSFQ Desire/Interest score,[1]; [9],6.7 and 6.66
same,CSFQ Orgasm/Completion score,[1]; [9],8.2 and 8.21
same,CSFQ Pleasure score,[1]; [9],2.0 and 1.99
same,CSFQ Total Score,[1]; [9],37.8
same,CSFQ Arousal/Excitement score,[1]; [10],7.91
same,CSFQ Desire/Frequency score,[1]; [10],4.78
same,CSFQ Desire/Interest score,[1]; [10],6.76
same,CSFQ Orgasm/Completion score,[1]; [10],8.33
same,CSFQ Pleasure score,[1]; [10],2.22
same,CSFQ Total Score,[1]; [10],38.7
same,CSFQ Arousal/Excitement score,[1]; [11],8.43
same,CSFQ Desire/Frequency score,[1]; [11],5.01
same,CSFQ Desire/Interest score,[1]; [11],7.26 (p = 0.08)
same,CSFQ Orgasm/Completion score,[1]; [11],8.69
same,CSFQ Pleasure score,[1]; [11],2.46
same,CSFQ Total Score,[1]; [11],40.4
same,sexual desire/interest (in words),"[1]; women, compared with placebo, Day 28 and/or Day 56",strong trend
same,sexual interest (in words),"[1]; women, p=0.08",improved sexual interest
same,effect on MDD,[2],did not demonstrate a statistically significant effect
